Laboratory results taken from PubChem BioAssay AID1159565 (GlaxoSmithKline (GSK), 2015).
Active and inactive are the calls of the source. No rule for the calls is given here.

Test system: T. cruzi-infected H9C2 cardiomyocytes, high-content imaging
Assay: anti-T. cruzi activity in infected cardiomyocytes – imaging, H9C2 host cardiomyocytes, host toxicity (AID 1159565);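 also: infected cells incubated 72 h after plating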
[1] = measured here: H9C2 host cell toxicity
[2] = measured here: amastigotes per cell

Row | SMILES | IC50 | IC50 [1] [nM] | IC50 [2] [nM]
1 | O=c1cc(NCCCNCc2c[nH]c3ccc(Br)cc23)[nH]c2ccccc12 | > 50000 nM (inactive) | > 50000 | 32000
2 | O=C(CN(Cc1ccccn1)Cc1ccccn1)NCc1csc(-c2cccs2)n1 | 6300 nM | > 50000 | 2500
3 | Cn1cncc1CN1CCC2(CC1)COC(Cc1ccccc1)C2 (stereo not given) | 500 nM | > 50000 | 320
4 | COCCn1c(-c2ccc3c(c2)OCO3)cnc1NCc1ccccc1OC | 20000 nM | 40000 | 7900
5 | CS(=O)(=O)NC1CCC(Oc2cc3cnccc3cc2-c2ccsc2)CC1 (stereo not given) | 160 nM | > 50000 | 100
6 | O=C(NCC(c1cccs1)N1CCOCC1)c1ccc([N+](=O)[O-])o1 (stereo not given) | 16000 nM | 5000 | 16000
7 | CN(Cc1cccnc1)Cc1ccc(N2CCN(C(=O)C3(c4ccc(Cl)cc4)CC3)CC2)nc1 | 1600 nM | > 50000 | 1300
8 | CCC1Oc2cc(S(=O)(=O)N(C)CC(=O)N3CCc4ccccc4C3)c(C)cc2NC1=O (stereo not given) | 250 nM | > 50000 | 250
9 | COc1ccccc1-c1c(C)[nH]c2nc(N)nc(C)c12 | 250 nM | > 50000 | 130
10 | O=C(NCCc1cccnc1)c1csc(-c2ccccc2)n1 | 500 nM | > 50000 | 400
11 | Cc1cc(NC(=O)c2ccc([N+](=O)[O-])s2)ccc1Br | 400 nM | 2500 | 250
12 | CCc1cccc(CC)c1-n1c(SCC(=O)NC(=O)NCc2ccco2)nnc1-c1cccnc1 | 13000 nM | > 50000 | 7900
13 | CCN(CC)c1nc(Nc2ccncc2)nc2ccccc12 | 79 nM | 7900 | 5
14 | COc1cc(-c2nc(N3CCOCC3)sc2-c2ccnc(NC3CCOCC3)n2)ccc1Cl | 160 nM | > 50000 | 100
15 | O=[N+]([O-])c1ccc(-c2nnn(-c3ccc(Cl)cc3)n2)o1 | 790 nM | 10000 | 79
16 | CN(C)CCN(C)Cc1ccc(Cl)cc1NS(=O)(=O)c1ccc(Cl)c(Cl)c1 | 2000 nM | 5000 | 2000
17 | Cc1cc(C)nc(N2CCC(N(Cc3cccnc3)C(=O)c3cccc(C#N)c3)CC2)n1 | 320 nM | > 50000 | 400
18 | CCOc1cnn(C)c(=O)c1Nc1ccc(C(=O)NCc2ccc(F)cc2)cc1 | 100 nM | > 50000 | 130
19 | CN(CCOc1ccc(Cl)cc1)Cc1nc(N)nc(N(C)C)n1 | 10000 nM | > 50000 | 7900
20 | COc1ccc(S(=O)(=O)Nc2ccc(C(=O)Nc3nc(-c4ccccn4)cs3)cc2)cc1 | 790 nM | 6300 | 630
21 | COc1ccc2ncc(Cl)c(CCN3CC[C@@H](NCc4cc5c(cn4)OCS5)[C@H](O)C3)c2n1 | 79 nM | 25000 | 63
22 | CC(c1cc(Cl)cc(Cl)c1)N(C)c1ncc2c(N)nc(N)nc2n1 (stereo not given) | 2 nM | 7900 | 1
23 | N#Cc1ccc(S(=O)(=O)N2CCN(Cc3cccc(-c4ccncc4)c3)CC2)cc1 | 250 nM | 25000 | 200
24 | O=C(Nc1cccc(S(=O)(=O)Nc2ccc(Br)cc2)c1)c1ccc([N+](=O)[O-])s1 | 130 nM | 2500 | 100
25 | Cc1ccc2c(c1)SC(C(=O)Nc1n[nH]c(-c3ccccn3)n1)C2 (stereo not given) | 7900 nM | > 50000 | 6300
